Assay results published in article PMC11768359, “2-Aminothiophene Derivatives—New Drug Candidates Against Leishmaniasis: Drug Design, Synthesis, Pharmacomodulation, and Antileishmanial Activity” (Pharmaceuticals, 2025).
Several values for one entry are separate records, joined by “and”; a condition that tells them apart may be missing. Identical values can stand only once. Like-named read-outs stand apart in the source and are kept apart here.

What was measured:
[1] = tested on: promastigotes of L. amazonensis; assay: Growth inhibition of promastigote forms of L. amazonensis (MTT); type: cell-based, Leishmania amazonensis; conditions: 72 h, 26 °C
Protocol: (§1) The in vitro tests utilized Leishmania amazonensis parasites (IFLA/BR/67/PH8). These leishmania cell lines were obtained from Oswaldo Cruz Foundation (FIOCRUZ)/Brazil. The promastigote forms were cultivated in Schneider’s insect medium at 26 °C in a biological oxygen demand (BOD) incubator. Schneider’s insect medium was supplemented with 20% fetal bovine serum (FBS) and 1% penicillin (100 U/mL) and streptomycin (µg/mL) (complete Schneider). Next, we differentiated them from promastigote forms by changing the conditions to Schneider’s insect medium supplemented with 5% FBS, pH 4.6, and a temperature of 32 °C to obtain axenic amastigote forms of L. amazonensis. Meanwhile, RAW 264.7 macrophages were cultured in […] cell culture flasks using DMEM medium supplemented with 10% FBS, 1% penicillin 100 U/mL, and 100 μg/mL streptomycin (complete DMEM) and incubated at 37 °C and 5% CO2.
(§2) Parasite growth inhibition was evaluated using the methodology described by Rodrigues et al. (2015). Cultures of logarithmically growing promastigote and axenic amastigote forms (1 × 10^6 parasites/mL) were incubated in 96-well plates containing 100 µL of supplemented Schneider’s medium in triplicate. Serial concentrations of 2-amino-thiophene and 2-amino-selenophene derivatives (10.00–0.156 μM) and the reference drugs meglumine antimoniate (500–40,000 μg/mL), amphoterecinB (0.1–2 μM), and pentamidine (3.12–100 µM) were added. BNP was used as a negative control. The cultures were incubated in a biological oxygen demand oven (model Eletrolab EL202, São Paulo, Brazil) at 26 °C for promastigotes and 32 °C for axenic amastigotes for 72 h. Then, 10 μL of MTT (5 mg/mL) was added to each well to colorimetrically evaluate growth inhibition. The plate was subsequently incubated for a further 4 h, followed by adding 50 μL of 10% sodium dodecyl sulfate solution for […] before the optical density of the culture was read on a microplate spectrophotometer reader. The reading was taken at the test and reference wavelengths of 540 and 620 nm using a microplate spectrophotometer. The negative control consisted of 0.2% […] with BNP, considered to be 100% viable.

[2] = tested on: axenic amastigotes of L. amazonensis; assay: Growth inhibition of axenic amastigote forms of L. amazonensis (MTT); type: cell-based, Leishmania amazonensis; conditions: 72 h, 32 °C
Protocol: as §1, §2

[3] = Cytotoxicity in macrophages (MTT); type: cell-based; conditions: mouse, RAW 264.7 macrophages
Protocol: as §1
First, 100 μL DMEM medium complete with 1 × 10^6 macrophages (RAW 264.7) was added to each well of a 96-well plate. RAW 264.7 macrophages were obtain from ATCC: code TIB-71^TM. The plate was placed in an incubator (37 °C, 5% CO2) (Sanyo, model COM-15A, Sanyo Electric Co., Osaka, Japan) for 4 h to promote cell adhesion. After this period, two washes were conducted with previously heated DMEM medium (37 °C) to remove non-adhered cells. 2-amino-thiophene and 2-amino-selenophene derivatives were added to wells at serial concentrations of 400 to 25 µM and then incubated for 48 h. Next, 10 μL of MTT at a […] of 5 mg/mL were added to each well and incubated for 4 h. The plate was then shaken for 30 min and read at the test and reference wavelengths of 550 and 620 nm, respectively, in a plate reader. DMEM medium supplemented with 0.5% DMSO was used as a negative control and considered as 100% macrophage viability. The selectivity index for each treatment was calculated as the ratio between the concentration of cytotoxicity of RAW 264.7 macrophages (CC50) and the 50% inhibitory concentration (IC50) or effective concentration (EC50), as measured for the different evolutionary forms of L. amazonensis.

[4] = tested on: promastigotes of L. amazonensis; conditions: cited from earlier work
[5] = tested on: axenic amastigotes of L. amazonensis; conditions: cited from earlier work
RAW 264.7 macrophages = conditions: previously published; cited from earlier work
[6] = L. amazonensis promastigotes, previously published, read-out: IC50 Promastigotes
[7] = L. amazonensis axenic amastigotes, previously published, read-out: IC50 Amastigotes

In the case of `NC(=O)c1c(N)sc2c1CCCC2` [Compound 7], the IC50 [1] is reported as greater than 10 µM, the IC50 ([1]; Leishmania amazonensis) is reported as no less than 10 µM and the IC50 ([2]; Leishmania amazonensis) is reported as greater than 10 µM.
For `COc1cccc2[nH]cc(/C=N/c3[se]c4c(c3C#N)CCCC4)c12` [Compound 39], the CC50 at 48 h [3] was 178 µM, the IC50 [1] was 2.15 µM and the IC50 ([1]; Leishmania amazonensis) was less than 3.5 µM.
Work on `CC(C)(C)OC(=O)N1CCc2c(sc(/N=C/c3c[nH]c4ccc(Br)cc34)c2C#N)C1` [Compound 31] yielded an IC50 ([1]; Leishmania amazonensis) greater than 10 µM and an IC50 ([2]; Leishmania amazonensis) greater than 10 µM.
For `N#Cc1c(/N=C/c2c[nH]c3ccc(Br)cc23)sc2c1CCCCC2` [SB-200], the IC50 [4, 6] is listed as 3.6 µM and 3.65 µM, the IC50 ([5]; L. amazonensis amastigotes, previously published, read-out: IC50 Amastigotes) is listed as 20 µM and 20.1 µM and the EC50 ([5]; L. amazonensis amastigotes, read-out: EC50 against amastigotes) is listed as 20.1 µM. For the same molecule, the CC50 (RAW 264.7 macrophages) was 32 µM.
Molecule `N=C(N)c1ccc(OCCCCCOc2ccc(C(=N)N)cc2)cc1` [Pentamidine, reference compound] has a CC50 at 48 h [3] of 294 µM and an IC50 ([1]; Leishmania amazonensis) of 42.3 µM.
For `CCOC(=O)c1ccsc1N` [Compound 3], the IC50 [1] was greater than 10 µM, the IC50 ([1]; Leishmania amazonensis) was no less than 10 µM and the IC50 ([2]; Leishmania amazonensis) was greater than 10 µM.
In the case of `CC(C)(C)OC(=O)N1CCc2c(sc(N)c2C#N)C1` [Compound 17, 2-Amino-6-N-Boc-Piperidine[b]Thiophene-3-Carbonitrile], the IC50 ([1]; Leishmania amazonensis) is reported as 8.61 µM and the IC50 ([2]; Leishmania amazonensis) is reported as greater than 10 µM.
In the case of `CCOC(=O)c1c(N)sc2c1CCCCC2` [Compound 11], the IC50 ([1]; Leishmania amazonensis) is reported as greater than 10 µM.
In the case of `CCOC(=O)c1c(N)sc2c1CCC2` [Compound 9], the IC50 ([1]; Leishmania amazonensis) is reported as greater than 10 µM.
Molecule `CCOC(=O)c1c(N)sc2c1CCC(C)C2` (stereo not drawn) [Compound 20] has an IC50 [1] greater than 10 µM and an IC50 ([1]; Leishmania amazonensis) of no less than 10 µM.
In the case of `CC(C)(C)OC(=O)c1c(N)sc2c1CCN(C(=O)OC(C)(C)C)C2` [Compound 22], the CC50 at 48 h [3] is reported as 195 µM, the IC50 ([1]; Leishmania amazonensis) is reported as 6.52 µM and the IC50 ([2]; Leishmania amazonensis) is reported as 8.35 µM.
In the case of “Meglumine antimoniate [reference compound]”, the IC50 ([4]; L. amazonensis, read-out: IC50 against promastigotes) is given as 70.3 µM, the IC50 [1] is given as 70.3 µM and 58.9 µM and 67.9 µM and the IC50 ([5]; L. amazonensis, read-out: IC50 against axenic amastigotes) is given as 2.77 µM.
For `N#Cc1c(/N=C/c2c[nH]c3ccccc23)sc2c1CCCCC2` [TN7, reference compound], the IC50 ([4]; L. amazonensis promastigotes, sensitive strain, read-out: IC50 anti-promastigote) is given as 10 µM.
In the case of `N#Cc1c(N)sc2c1CCCCC2` [Compound 7CN], the IC50 [4, 6] is given as 3.2 µM and 3.14 µM, the IC50 [5, 7] is given as 2.7 µM and 2.79 µM and the CC50 (RAW 264.7 macrophages) is given as 99.5 µM.
For `N#Cc1c(N)sc2c1CCCCCC2` [Compound 8CN], the IC50 [4, 6] is given as 1.2 µM and the CC50 (RAW 264.7 macrophages) is given as 43.9 µM.
For `N#Cc1c(/N=C/c2c[nH]c3cccc(Br)c23)[se]c2c1CCCC2` [Compound 37], the CC50 at 48 h [3] was 242 µM and the IC50 ([1]; Leishmania amazonensis) was 4.5 µM.
`CC(C)(C)C1CCc2c(sc(/N=C/c3c[nH]c4ccc(Br)cc34)c2C#N)C1` (stereo not drawn) [Compound 29] gave an IC50 ([1]; Leishmania amazonensis) greater than 10 µM and an IC50 ([2]; Leishmania amazonensis) greater than 10 µM.
In the case of `CC1CCc2c(sc(/N=C/c3c[nH]c4ccc(Br)cc34)c2C#N)C1` (stereo not drawn) [Me-6CN83], the IC50 [4, 6] is given as 9.9 µM, the IC50 [5, 7] is given as 8.7 µM and 8.72 µM and the CC50 (RAW 264.7 macrophages) is given as greater than 100 µM.
With `Cc1ccc2[nH]cc(/C=N/c3[se]c4c(c3C#N)CCCC4)c2c1` [Compound 35] the “IC50 Promastigotes” value [1] was “not active up to the highest concentration evaluated” and the IC50 ([1]; Leishmania amazonensis) was greater than 10 µM.
In the case of `COc1ccc2[nH]cc(/C=N/c3[se]c4c(c3C#N)CCCC4)c2c1` [Compound 40], the “IC50 Promastigotes” value [1] is reported as “not active up to the highest concentration evaluated” and the IC50 ([1]; Leishmania amazonensis) is reported as greater than 10 µM.
For `CCCC1CCc2c(sc(N)c2C#N)C1` (stereo not drawn) [Compound 15], the IC50 [1] was 9.2 µM, the IC50 ([1]; Leishmania amazonensis) was less than 10 µM and the IC50 [2] was 9.3 µM. The IC50 ([2]; Leishmania amazonensis) was less than 10 µM.
With `N#Cc1c(/N=C/c2c[nH]c3cccc([N+](=O)[O-])c23)[se]c2c1CCCC2` [Compound 34] the CC50 at 48 h [3] was 189 µM, the IC50 [1] was 2.14 µM and the IC50 ([1]; Leishmania amazonensis) was less than 3.5 µM.
In the case of `CCOC(=O)c1c(N)sc2c1CCCC2` [Compound 10], the IC50 ([1]; Leishmania amazonensis) is reported as greater than 10 µM.
Work on `NC(=O)c1ccsc1N` [Compound 2] yielded an IC50 [1] greater than 10 µM, an IC50 ([1]; Leishmania amazonensis) of no less than 10 µM and an IC50 ([2]; Leishmania amazonensis) greater than 10 µM.
